The results in this text go back to PMC9750872, “Ras-mutant cancers are sensitive to small molecule inhibition of V-type ATPases in mice” (Nature biotechnology, 2022).

Holding throughout (type): cell-based
The test system of data set [1] is panel of 53 cancer cell lines. Kind of data set: 249C sensitivity in a panel of 53 cancer cell lines. To be noted: Homo sapiens, read-out: median IC50. How it is done:
Figure 1: Optimization of Potency and Drug Properties of Small Molecule Inhibitors of Ras- and Raf-mutant Cells using Viability Screens. (A) Cell viability screen of ~300 small molecules in A549 (KRASG12S), LOX IMVI (BRAFV600E), and MelJuso (HRASG13D and NRASQ61L). Cells were treated with vehicle DMSO or increasing concentrations of small molecules in triplicate for 72 h and ATP content/viability was measured using CellTiter-Glo Luminescent Cell Viability Assay. The results shown for all cell viability figures are representative of at least two independent experiments. […] (F) Quantitative whole proteome analysis of the effects of small molecule treatment by mass spectrometry. A549 cells were treated with DMSO or 68 (30 μM), 226C (1μM) or 249C (1μM) for 48 h prior to analysis of proteomes with TMT labeling followed by quantification relative to the DMSO control. […]
The Cancer Cell Line Encyclopedia (CCLE, http://www.broadinstitute.org/ccle) was used to download somatic mutation data for over 1000 cancer cell lines [(CCLE_DepMap_18q3_maf_20180718.txt) from CCLE at https://depmap.org/portal/download/ (2018)][61]. We filtered the data to retain only mutations (single nucleotide variants, SNVs, and insertion deletions, indels) detected in 53 cell lines that were included in our MTS assays (Fig. 1). […] Genes with multiple mutations in the same cell line were only counted once. […]

The subject of another data set is human primary cells. Kind of data set: BioMAP Safety and Toxicology screening profile. To be noted: over 100 biomarker readouts. As to the method:
The BioMAP Toxicity Screening Profile was performed as described previously.

A further data set deals with MEFs bearing KRASG12V. Kind of data set: Macropinocytosis, TMR-dextran uptake. The conditions noted are these: Mus musculus; 2 μM 249C 18 h, DMSO = 100%; read-out: inhibition of MP. How it is done: (§1) Macropinosome visualization was essentially done as previously described. Cells were plated in black, clear bottom CellCarrier-96 Ultra Microplates (PerkinElmer 6055302) and serum-starved for 24 h. The next day, they were treated with 2 μM 249C (1255) for 18 h followed by addition of 70 kDa TMR-Dextran (Invitrogen D1818) and Hoescht for 2 hours at 37 °C prior to 3 × cold PBS washes and fixation in 4% paraformaldehyde for 30 min. Following 3 × cold PBS washes, mounting medium (Vector Laboratories Inc.) was added and images were captured using an Operetta CLS™ fluorescent microscope for High-Content Analysis (PerkinElmer). Image analysis and quantification was performed with a spot segmentation algorithm using the Perkin Elmer Harmony® PhenoLOGIC™ 3.2 software. Briefly, the images were segmented and individual nuclei (DAPI stained) and cell bodies (by digital phase contrast imaging) were identified. The TMR signal was used for the spot segmentation analysis block. […] Data are presented as spots - number of objects per nucleus. For each cell line, 5 DMSO control and 5 249C-treated wells were imaged and a minimum of 3 images were captured per well. Data representing three independent experiments are presented.

The test system of a further data set is MEFs bearing KRASG13D. Kind of data set: Macropinocytosis, TMR-dextran uptake. The conditions noted are these: Mus musculus; 2 μM 249C 18 h, DMSO = 100%; read-out: inhibition of MP. As to the method: as §1
The next data set relates to MEFs bearing BRAFV600E. Kind of data set: Macropinocytosis, TMR-dextran uptake. The conditions noted are these: Mus musculus; 2 μM 249C 18 h, DMSO = 100%; read-out: inhibition of MP. As to the method: as §1

Where two headings read alike, the source gives them in different places.

Take `CN1CCOC(CNC(=O)C2(C)C(c3ccc(Cl)o3)C(c3ccc(F)cc3F)=NN2c2ccc(F)cc2F)C1` (stereo not drawn) [Compound 249C]: the IC50 was determined as 65 nM in data set [1] (KRAS/HRAS/NRAS/BRAF mutant cells) and 365 nM in data set [1] (cells with no mutations in these genes). For the same compound, the “toxicity categories / adverse events in BioMAP safety profiling” value with human primary cells is recorded as “no adverse events”. Further, the inhibition at 2 µM in the data set with MEFs bearing KRASG12V was 73%; in the data set with MEFs bearing KRASG13D, 94%; with MEFs bearing BRAFV600E, 90%.
